Measurements reported in patent US20060088545A1, “Use of inhibitors of the protease of the human immunodeficiency virus (hiv) to block cell migration and/or invasion, tissue infiltration and oedema for the therary of diseases associated therewith” (priority 2001, published 2006).
“Also recorded” adds a separate entry of the source. Read-outs that look alike come from different tables or passages of the source.

Legend:
[1] = test system: dermal microvascular endothelial cells (H-DMVEC); assay: Invasion assay of dermal microvascular endothelial cells in response to bFGF; type: cell-based, human
Experimental: Both assays were performed by the Boyden chamber separated in two compartments by polycarbonate filters with 12 μm pores (Nucleoprobe, Cabin John, Md.), coated with collagen IV (Collaborative Biomedical Products) for migration, or with collagen IV and Matrigel together for invasion, as described previously (Barillari et al., 1999b). […] After 5 hours (migration) or 6 hours (Invasion) of incubation, the non-migrated cells present on the top surface of the filters were mechanically removed, while the migrated cells on the bottom surface were fixed in methanol and stained with toluidine blue (Sigma Chemical Co., St. Louis, Mo.). The cells present in 5-10 microscopic fields of the filters, chosen at random, were counted as described previously (Barillari et al., 1999b).
Basal invasion in the absence of bFGF was assumed as 100%.

[2] = test system: angiogenesis induced by bFGF or VEGF in the chorioallantoic membrane; conditions: for VEGF-induced angiogenesis, % of the untreated VEGF control / bFGF-induced angiogenesis, % of the untreated bFGF control / Average vessel (number/mm^2 ± SD): HIV-PI 10 μM; for basal CAM vascularization: drug administered alone; for toxicity in CAM: in vivo
Experimental: CAM assays were performed with 1 mm^3 sterilized gelatin sponges (Gelfoam; Upjohn Co, Kalamazoo, Mich.) adsorbed with bFGF or VEGF (1 μg or 100 ng, respectively) in 5 μl of PBS, and with buffer, HIV-PI (10 μM) or taxol (250 nM) (Bristol-Myers Squibb Co., Princeton, N.J.) as described (Ribatti et al, Int. J. Dev. Biol., 1996). CAM were examined daily until day 12 under an Olympus SZX9 stereomicroscope. Images (1024×1024 pixels) were captured at a distance of 2 mm from the edge of the sponge using a cooled digital CCD Hamamatsu ORCA camera (Hamamatsu Photonics Italia, Arese, Italy). Vessel number was quantified with the ImageProPlus 4.0 imaging software (Media Cybernetics, Silver Spring, Md.) in 3 randomly selected areas per egg ([…]).
Results are expressed as the average number of vessels/mm^2±SD from the indicated number of CAM per experimental condition.

[3] = test system: hepato-carcinoma cells (SK-Hep-1); assay: Cell growth assay of SK-Hep-1 cells; type: cell-based, human; conditions: 10 μM; 4 days
Experimental: FIG. 16. […] Shown is the result of a representative cell growth assay performed on the hepato-carcinoma cells. Human hepato-carcinoma cells (SK-Hep-1; from ATCC) were plated in triplicate (8×10^4 cells/well) in 12-well plates. […] After 4 days of culture, the cells were counted by trypan blue dye staining, as previously described (Ensoli et al., 1990; Ensoli et al., 1994b): For all the in vitro studies HIV-PI as endotoxin-free pure powder (a kind gift of Merck Sharp & Dohme and Roche) were resuspended in distilled water. Assays were repeated at least three times.

[4] = test system: hepato-carcinoma (SK-Hep-1) cells; assay: Invasion assay of SK-Hep-1 cells in response to bFGF; type: cell-based, human; conditions: 0.1, 1 or 10 μM
Experimental: The invasion assays were performed in the Boyden chamber. Polycarbonate filters ([…]; Nucleoprobe, Cabin John, Md.) were coated first with collagen IV and then with Matrigel (Collaborative Biomedical Products) as described previously (Barillari et al., 1999b). […] Human recombinant bFGF (50 ng/ml) was placed in the lower compartment as chemo-attractant. […] Louis, Mo.). Ten random filter fields were counted by light microscopy as described previously (Barillari et al., 1999b).

[5] = test system: KS-like lesions induced by KS cells (KS12); assay: Regression of KS-like lesions induced by KS cells in nude mice, no drug pre-treatment; type: in vivo; conditions: treatment started on the day of KS cell inoculation, 5 days
Experimental: Indinavir and saquinavir can also promote KS regression in the absence of any drug pre-treatment. […] Treatment was then continued for 5 days, until sacrifice. The mean size (cm^2) of the lesions present at the injection site evaluated by daily caliper measurement and calculated as the product of the two major lesion diameters is shown.
To determine whether HIV-PI can also promote KS regression in the absence of any drug pre-treatment, experiments were also performed by treating mice with HIV-PI at the time of KS cell inoculation.

[6] = test system: hepato-carcinoma (SK-Hep-1) cells; assay: Tumour lesions induced by SK-Hep-1 cells in nude mice; type: in vivo; conditions: 5×10^6 cells/site; daily treatment
Experimental: Twenty-four hours before cell injection, the mice have received sub-lethal irradiation (400 G) in order to increase the tumour up-take. The treatment with HIV-PI or saline solution continued until sacrifice. The size of the lesions present at the injection site was evaluated daily by caliper measurement. External lesion area was then calculated as the product of the two major lesion diameters. The mean size (cm^2) of the lesions present at the injection site is shown.
(§1) To determine whether HIV-PI could inhibit the growth of malignant solid and lymphoid tumours, nude mice were inoculated with hepato-carcinoma cells (SK-Hep-1), lung carcinoma cells (A549), breast adeno-carcinoma cells (MDA-MB-468), myelo-monocytic leukaemia cells (U937), and T lymhocytic leukaemia cells (Jurkat).

[7] = test system: breast carcinoma (MDA-MB468) cells; assay: Tumour lesions induced by MDA-MB468 cells in nude mice; type: in vivo; conditions: 5×10^6 cells/site; daily treatment
Experimental: FIG. 28. […] The treatment with HIV-PI or saline solution continued until sacrifice. The size of the lesions present at the injection site was evaluated daily by caliper measurement. External lesion area was then calculated as the product of the two major lesion diameters. The mean size (cm^2) of the lesions present at the injection site is shown.
as §1

[8] = test system: VEGF; assay: VEGF production by KS cells (ELISA); type: cell-based, human; conditions: 0.1, 1 and 10 μM; 5 days + 24 hours
Experimental: (§2) After 24 hours of incubation, the supernatants of the cultures were tested by ELISA (R & D Systems, Minneapolis, Minn., USA) to determine the quantity of IL-6 present in the medium. The quantity of IL-6 is expressed in pg/ml of supernatant. The same tests were carried out for bFGF, VEGF, IL-1α and IL-1β by means of commercial ELISA kits.
(§3) KS cells secrete cytokines with an inflammatory, oedemigenic, angiogenic and proliferative activity with autocrine and paracrine effects (Ensoli and Stürzl, 1998). These factors mediate all the processes required for KS-like lesions formation (angiogenesis, cellular proliferation and invasion, inflammatory Infiltration, oedema) and vascular permeability and oedema induced by KS cells in nude mice. […] The quantity of bFGF, VEGF, IL-1 and IL-6 was dosed with immuno-enzymatic trials in the supernatants of the KS cells after 24 hours of culture in the absence of serum and in the continuous presence of the two HIV-PI (ELISA). […] Furthermore IL-6 plays a key role in the multicentric Cstleman's diseases and in the growth of lymphomas (Tosato et al., 1993; Peterson and Frizzera, 1993; Asou et al., 1998; Ramsay et al., 1994), another type of tumour whose incidence is reduced in patients treated with HIV-PI (International Collaboration on HIV and Cancer 2000).

[9] = test system: IL-1β; assay: IL-1β production by KS cells (ELISA); type: cell-based, human; conditions: 0.1, 1 and 10 μM, 5 days + 24 hours
Experimental: as §2, §3

Row | SMILES | invasion in response to bFGF [1] | VEGF-induced angiogenesis, % of the untreated VEGF control [2] | bFGF-induced angiogenesis, % of the untreated bFGF control [2] | Average vessel (number/mm^2 ± SD) ([2]; VEGF 100 ng) | Average vessel (number/mm^2 ± SD) ([2]; bFGF 1 μg, taxol 250 nM) | basal CAM vascularization [2] | toxicity in CAM [2] | proliferation [3] | invasive capacity in response to bFGF [4] | regression of KS-like lesions (lesion size) [5] | development of tumour lesions (lesion size) [6] | development of tumour lesions (lesion size) [7] | production of VEGF by KS cells [8] | production of IL-1β by KS cells [9] | production of IL-1β by KS cells ([9]; listed as indinavir)
1 | CC(C)(C)NC(=O)[C@@H]1CN(Cc2cccnc2)CCN1C[C@@H](O)C[C@@H](Cc1ccccc1)C(=O)N[C@H]1c2ccccc2C[C@H]1O [Indinavir, indinavir] | inhibit | 36% | 42% | 7.70 ± 2.52 number/mm^2 | 8.22 ± 2.54 number/mm^2 | did not affect | not associated with toxicity | do not interfere | inhibit | promote the regression | inhibit | inhibit | reduced | inhibited | reduced
2 | CC(C)(C)NC(=O)[C@@H]1C[C@@H]2CCCC[C@@H]2CN1C[C@@H](O)[C@H](Cc1ccccc1)NC(=O)[C@H](CC(N)=O)NC(=O)c1ccc2ccccc2n1 [Saquinavir, saquinavir] | inhibit | 11% | 19% | 5.39 ± 0.67 number/mm^2 | 6.08 ± 1.84 number/mm^2 | did not affect | not associated with toxicity | do not interfere | inhibit | promote the regression | inhibit | inhibit | reduced | reduced; also recorded: inhibited | 
